Results reported in article PMC7382501 (Nature Communications, 2020).

How the values were obtained:
Mtb FasR = conditions: ref Mondino et al Mol Microbiol 2013 89:372; cited from earlier work
FasRwt = FasRwt (Mycobacterium tuberculosis, UniProt O05858)
Chain of FasRwt (O05858 whole entry): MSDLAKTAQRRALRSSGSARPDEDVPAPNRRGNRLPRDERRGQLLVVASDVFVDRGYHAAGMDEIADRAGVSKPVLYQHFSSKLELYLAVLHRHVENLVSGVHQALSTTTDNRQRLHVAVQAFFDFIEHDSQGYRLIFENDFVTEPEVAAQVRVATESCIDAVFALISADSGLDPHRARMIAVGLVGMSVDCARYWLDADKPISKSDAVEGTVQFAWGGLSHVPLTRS

| SMILES | triggering of DNA-dissociation (Mtb FasR) | k, exponential decay rate of full-length FasR under trypsin proteolysis (FasRwt) |
| --- | --- | --- |
| CCCCCCCCCCCCCC(=O)O [C14, myristic acid] | ineffective at triggering DNA-dissociation | – |
| CCCCCCCCCCCCCCCCCCCC(=O)SCCNC(=O)CCNC(=O)[C@H](O)C(C)(C)COP(=O)(O)OP(=O)(O)OC[C@H]1O[C@@H](n2cnc3c(N)ncnc32)[C@H](O)[C@@H]1OP(=O)(O)O [C20-CoA, arachidoyl-CoA] | – | 0.11 |
